pIC50: −log10 of the molar value. Where two headings read alike, the source gives them in different places.
Legend:
HL-60 cells [1] = assay: Viable cell count of leukemic cells in suspension culture (Trypan blue); format: cell-based, human; conditions: for pIC50: HL-60
Protocol: Suspension culture of leukemic cells. Leukemic cell lines were cultured at a density of 3.0×10^5 cells/mL, and AML mononuclear cells at 5×10^5 cells/mL in the presence or absence of indicated concentrations of CDDO-Me. Appropriate amounts of DMSO (final concentration<0.05%) was included as a control. For cytotoxicity studies, 1 μM ara-C was added to the cultures.
CDDO. […] The percentage of proliferating cells were analyzed by FCM.
CDDO-Me. […] Mechanism of growth inhibition was analyzed on cell cycle and apoptosis in HL-60 cells.

HL-60 cells [2] = assay: Differentiation by CD11b/CD14 flow cytometry; format: cell-based, human; conditions: for CD11b %: 7 days; for percentage of CD14 (+) live cells (FCM): no ligand
Protocol: Immunophenotyping. The PE-conjugated anti-CD11b, FITC-conjugated anti-CD14 monoclonal antibody (mAb) (Becton Dickinson) and PE-conjugated anti-CD95 mAb (PharMingen) were used at a 1/10 dilution.
Enhancement in cellular differentiation using combinations of CDDO with ATRA were tested. […] Cell differentiation was analyzed by flow cytometry (CD14/CD11b staining). […] These experiments were repeated. […]
Finally, the inventors examined if CDDO-Me combined with ATRA would enhance differentiation. […] […] Next, combined treatment with CDDO-Me and RXR-specific ligand were tested for potentiation of anti-leukemic effects.

CML-BC sample = assay: Colony formation of CML-BC sample; format: cell-based, human; conditions: CDDO 0.5 μM, CDDO-Me 0.1 μM
normal CD34+ cells = assay: CFU-GM of normal CD34+ cells (CFU-GEMM assay); format: cell-based, human; conditions: for CFU-GM generated from normal CD34+ cells detected: n=3
Protocol: CFU-Granulocyte-Erythroid-Macrophage-Megakaryocyte (CFU-GEMM) Assay. In three experiments, 2×10^5 CD34^+ cells isolated from normal bone marrow (n=1) or G-CSF-stimulated peripheral blood (n=2) were plated in 0.8% methylcellulose with IMDM, 1 U/mL human erythropoietin (Terry Fox Laboratories, Vancouver, Canada), and 50 ng/mL recombinant hGM-CSF. CDDO-Me was added at the initiation of cultures at concentrations ranging from 0.05 to 0.5 μg/mL.
The effect of CDDO on clonogenic AML cells were tested. […] (FIG. 7).
CDDO-Me. […] Effects of CDDO-Me were also tested on clonogenic AML cells.

U937 cells = assay: Atlas Cancer cDNA array, differential gene expression; format: cell-based, human; conditions: 1 μM; CDDO 24 hrs, CDDO-Me 1 hour
Protocol: The differential expression of a large number of genes involved in apoptosis, proliferation and signal transduction were analyzed utilizing the Atlas Cancer c-DNA array from Clontech (Palo Alto, Calif.). […] The downregulation of 17 genes (over two-fold) was seen, some of these genes were MAPKK5, STAT5A and B, DNA topoisomerase 2, VEGFR1 and VEGF. […] Differential expression of a large number of genes involved in apoptosis, proliferation and signal transduction was also performed for CDDO-Me. […] In preliminary studies, the inventors observed over two-fold downregulation of 23 genes: these include MAPK/ERK2, endothelin2, MLH1. Remarkably, decreased expression of VEGFR1, that potentially mediate pro-angiogenic properties of the leukemic cells, was observed (FIG. 33). […] The cDNA array data require conformation but may indicate what changes in gene expression contribute to the observed anti-leukemic effects of CDDO-Me.

[3] = system: bone marrow endothelial cells; assay: Matrigel tube-like endothelial structure formation; format: cell-based
Protocol: CDDO. PPARγ nuclear receptor is expressed in bone marrow endothelial cells, and PPARγ ligands inhibit inhibited endothelial cell proliferation. […] The present inventors therefore tested the effects of CDDO in endothelial cell assays. The formation of tube-like endothelial structures was performed using Matrigel®, a basement membrane matrix extracted from the Engelbreth-Holm Swarm mouse sarcoma cell line. Bone marrow endothelial cells with recombinant angiogenic cytokines were incubated in the presence or absence of CDDO, and formation of tube-like endothelial structures was assessed by direct observation using a inverted contrast-phase microscope. […] Vascular endothelial cells (HUVEC) were grown in EBM-2 or EGM-2 media (Clonetics) containing VEGF, EGF, bFGF and IGF-1. The proliferation of endothelial cells was assessed by inverted contrast-phase microscope after 24 hrs of CDDO exposure in the indicated concentrations. CDDO-Me. The formation of tube-like endothelial structures that are associated with angiogenesis was analyzed using a Matrigel system (Kubota et al., 1988). Capillary-like structure formation of bone marrow endothelium was inhibited by CDDO-Me. […] Thus, CDDO-Me also has anti-angiogenic effects.

HL-60-Dox cells = assay: Killing of MDR-1 expressing cells; format: cell-based, human
[4] = system: U937 cells transduced with Bcl-2; assay: Cytotoxicity in Bcl-2 overexpressing cells; format: cell-based, human
Source text: The inventors also tested if overexpression of the anti-apoptotic protein Bcl-2 protected leukemic cells from CDDO-induced cytotoxicity. For these experiments U937 cells transduced with Bcl-2 were used with empty-vector containing counterparts as controls.
To study if the overexpression of Bcl-2 can protect leukemic cells from CDDO-Me-induced cytotoxicity the inventors used U937 cells transduced with Bcl-2 (Vrana et al., 1999) and their empty-vector containing counterparts. […] However, […] overexpressing Bcl-2 exerted almost complete protection from CDDO-Me killing as determined by annexin V-positivity, Phi-Phi-Lux and CMXRos staining. […] In contrast, in p53-negative HL-60 and HL-60-Dox cells Fas was only not induced but IETD-FMK could also not prevent CDDO-Me-induced cell death, indicating involvement of different mechanisms of apoptotic cell death in these cells (Owen-Schaub et al., 1994). […] Thus, induction of the FasL/Fas/caspase-8 pathway is not essential in the execution of CDDO-Me-induced cell death. Post-translational modifications of Bcl-2 are involved in the regulation of apoptosis by CDDO-Me. Thus, Bcl-2 phosphorylation is inhibited by CDDO-Me.

Structure (SMILES): CC1(C)CCC2(C(=O)O)CCC3(C)C(C(=O)C=C4C5(C)C=C(C#N)C(=O)C(C)(C)C5CCC43C)C2C1 (stereo not drawn) [CDDO, 2-cyano-3,12-dioxoolen-1,9-dien-28-oic acid]
- pIC50 (HL-60 cells [1]; Homo sapiens, 72 and 96 hours, read-out: concentration of CDDO that reduced cell numbers by 50%): 9.00
- pIC50 (HL-60 cells [1]; Homo sapiens, 48 hours, read-out: concentration of CDDO that reduced cell numbers by 50%): 8.00
- concentration needed to exert similar effect (CD11b+ as 0.1 μM CDDO-Me) (HL-60 cells [2]): 1 µM
- CD11b % (HL-60 cells [2]; 0.1 μM (DMSO control 24.9)): 45.0%
- CD11b % (HL-60 cells [2]; 0.3 μM): 75.9%
- percentage of CD14 (+) live cells (FCM) (HL-60 cells [2]; CDDO 0.5 μM): 36.7%
- percentage of CD14 (+) live cells (FCM) (HL-60 cells [2]; CDDO 1 μM): 80.4%
- concentration at which monocytic differentiation was induced (HL-60 cells [2]; HL-60 cells): 0.5 to 1.0 µM
- inhibition at 0.5 µM (CML-BC sample; Homo sapiens, read-out: inhibition of colonies in one CML-BC sample): > 50%
- CFU-GM of normal CD34+ cells inhibited by (normal CD34+ cells; at this concentration (n=3)): 26.8±4.3%
- number of genes downregulated over two-fold (U937 cells): 17
- number of genes upregulated (U937 cells): 7
- formation of capillary-like structures by bone marrow endothelium [3]: potently inhibited the formation of capillary-like structures
- sensitivity of HL-60-Dox cells with high expression of the MDR-1 gene (HL-60-Dox cells): sensitive to CDDO-induced killing
- protection by Bcl-2 overexpression (3-fold) [4]: did not protect cells from CDDO-killing

Structure (SMILES): COC(=O)[C@]12CCC(C)(C)C[C@H]1[C@H]1C(=O)C=C3[C@@]4(C)C=C(C#N)C(=O)C(C)(C)[C@@H]4CC[C@@]3(C)[C@]1(C)CC2 [CDDO-Me]
- viable cells recovered (HL-60 cells [1]; 0.5 μM, 48 hrs): essentially no viable cells
- pIC50 (HL-60 cells [1]; read-out: IC50): 6.40
- CD11b+ cells (HL-60 cells [2]; 0.1 μM): 86.6%
- CD11b+ cells (HL-60 cells [2]; 48 hrs, CDDO-Me 0.1 μM, ATRA 1 μM, alone or simultaneously (DMSO controls 40%)): 67.4%
- inhibition of colonies in one CML-BC sample (CML-BC sample): > 50%
- CFU-GM generated from normal CD34+ cells detected (normal CD34+ cells; 0.1 μM): 79±5.6%
- CFU-GM generated from normal CD34+ cells detected (normal CD34+ cells; 0.5 μM): 63.4±1.1%
- number of genes downregulated over two-fold (U937 cells): 23
- number of genes upregulated (U937 cells): Twenty-two
- formation of capillary-like structures by bone marrow endothelium [3]: inhibited
- sensitivity of HL-60-Dox cells with high expression of the MDR-1 gene (HL-60-Dox cells): sensitive to CDDO-Me-induced killing
- protection by Bcl-2 overexpression (3-fold) [4]: did not protect cells from CDDO-Me-killing

From patent US7795305B2, “CDDO-compounds and combination therapies thereof” (Board of Regents, The University of Texas System, priority 2000, dated 2010)
